Starred links: 1 amine or outer side, 2 acyl side, 3 side chain; linkers in the order of their positions; H or OH if unused. Positions of bridges follow the written chain, without caps; N, C: chain ends. Non-standard residues stand in square brackets, D forms with d. Residues, ends and D or L forms follow the SMILES beside them. *: point of attachment. Ala(1-CH2CO2H-4-piperidyl) = N[C@@H](CC1CCN(CC(=O)O)CC1)C(=O)O; Ala(piperidin-4-yl) = O=C([C@H](CC1CCN([*:3])CC1)N[*:1])[*:2]; DOTA = O=C(O)CN1CCN(CC(=O)O)CCN(CC(=O)*)CCN(CC(=O)O)CC1; Tyr(SO2F) = N[C@@H](Cc1ccc(OS(=O)(=O)F)cc1)C(=O)O; Butanoyl(4-(4-I-phenyl)) = O=C(CCCc1ccc(I)cc1)*; Phe(4-COOH) = N[C@@H](Cc1ccc(C(=O)O)cc1)C(=O)O; Trp(5-F) = N[C@@H](Cc1c[nH]c2ccc(F)cc12)C(=O)O; PEG8 = NCCOCCOCCOCCOCCOCCOCCOCCOCCC(=O)O; 1Nal = N[C@@H](Cc1cccc2ccccc12)C(=O)O; Ala(4-THP) = N[C@@H](CC1CCOCC1)C(=O)O; Val(3-OH) = CC(C)(O)[C@H](N)C(=O)O; mTyr = N[C@@H](Cc1cccc(O)c1)C(=O)O; 4Pal = N[C@@H](Cc1ccncc1)C(=O)O; Chg = N[C@H](C(=O)O)C1CCCCC1; Tle = CC(C)(C)[C@H](N)C(=O)O; hLeu = CC(C)CC[C@H](N)C(=O)O; αMeP = C[C@@]1(C(=O)O)CCCN1; NMeS = CN[C@@H](CO)C(=O)O; Nle = CCCC[C@H](N)C(=O)O; Sar = CNCC(=O)O
The molecules below were run against T1, human 4lg B7-H3 (Homo sapiens, UniProt Q5ZPR3) (assay: Affinity determination by surface plasmon resonance (SPR) to 4Ig B7-H3). Conditions: not given.
T1 sequence (Q5ZPR3 29-534): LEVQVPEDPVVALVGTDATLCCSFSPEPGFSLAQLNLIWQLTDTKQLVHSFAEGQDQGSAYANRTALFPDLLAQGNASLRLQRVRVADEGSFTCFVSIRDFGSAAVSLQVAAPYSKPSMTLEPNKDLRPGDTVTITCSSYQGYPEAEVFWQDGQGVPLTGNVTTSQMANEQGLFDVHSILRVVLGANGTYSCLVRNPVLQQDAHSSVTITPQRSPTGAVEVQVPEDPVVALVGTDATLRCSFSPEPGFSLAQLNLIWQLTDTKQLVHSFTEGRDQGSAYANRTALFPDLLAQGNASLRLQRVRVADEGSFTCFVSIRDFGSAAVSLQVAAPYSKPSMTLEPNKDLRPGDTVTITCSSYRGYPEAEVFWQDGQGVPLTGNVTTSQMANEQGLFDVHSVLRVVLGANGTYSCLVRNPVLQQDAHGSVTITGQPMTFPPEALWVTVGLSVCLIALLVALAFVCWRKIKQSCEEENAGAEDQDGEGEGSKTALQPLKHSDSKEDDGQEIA

Row | SMILES | Kd [nM]
1 | CC(=O)N[C@@H](CCC(C)C)C(=O)N[C@@H](Cc1ccc(O)cc1)C(=O)N[C@H]1CSSC[C@@H](C(=O)N[C@@H](Cc2c[nH]c3ccc(F)cc23)C(=O)N[C@@H](Cc2ccccc2)C(=O)N[C@H](C(=O)N[C@H](CCCCNC(=O)CN2CCN(CC(=O)O)CCN(CC(=O)O)CCN(CC(=O)O)CC2)C(=O)O)C(C)(C)O)NC(=O)[C@H](Cc2ccc(OS(=O)(=O)F)cc2)NC(=O)[C@H](C(C)C)NC(=O)[C@H](CC(=O)O)NC(=O)[C@H](CC2CCOCC2)NC(=O)[C@H](CCCCN)NC(=O)CNC(=O)[C@H](C(C)(C)C)NC1=O [Cpd #389, Ac-hLeu-Y-C-Tbg-G-K-ThpA-D-V-FSY-C-5FW-F-hydroxyVal-dLys(DOTA)-COOH] (Ac-[hLeu]YC[Tle]GK[Ala(4-THP)]DV[Tyr(SO2F)]C[Trp(5-F)]F[Val(3-OH)][dK](DOTA)-OH; disulfide 3-11) | < 1

Same assay, conditions: SPR KD—25° C., 4Ig B7-H3; 25° C. flow cell temperature

Row | SMILES | Kd [nM]
2 | CC(=O)N[C@@H](CCC(C)C)C(=O)N[C@@H](Cc1ccc(O)cc1)C(=O)N[C@H]1CSSC[C@@H](C(=O)N[C@@H](Cc2cccc3ccccc23)C(=O)N[C@@H](Cc2ccccc2)C(=O)N2CCC[C@@]2(C)C(=O)N[C@H](CCCCNC(=O)CN2CCN(CC(=O)O)CCN(CC(=O)O)CCN(CC(=O)O)CC2)C(N)=O)NC(=O)[C@H](Cc2ccc(O)cc2)NC(=O)[C@H](C(C)C)NC(=O)[C@H](CC(=O)O)NC(=O)[C@H](Cc2ccc(O)cc2)NC(=O)[C@H](CCCCN)NC(=O)CNC(=O)[C@H](C(C)C)NC1=O [compound 247, Ac-hLeu-Y-C-V-G-K-Y-D-V-Y-C-1Nal-F-aMePro-dLys(DOTA)-CONH2] (Ac-[hLeu]YCVGKYDVYC[1Nal]F[αMeP][dK](DOTA)-NH2; disulfide 3-11) | 1 to 10
3 | CCCC[C@H](NC(=O)CCOCCOCCOCCOCCOCCOCCOCCOCCNC(=O)CN1CCN(CC(=O)O)CCN(CC(=O)O)CCN(CC(=O)O)CC1)C(=O)N[C@@H](Cc1ccc(O)cc1)C(=O)N[C@H]1CSSC[C@@H](C(=O)N[C@@H](Cc2c[nH]c3ccccc23)C(=O)N[C@@H](Cc2ccccc2)C(=O)N[C@H](C(N)=O)[C@@H](C)O)NC(=O)[C@H](Cc2ccc(O)cc2)NC(=O)[C@H](C(C)C)NC(=O)[C@H](CC(=O)O)NC(=O)[C@H](Cc2ccc(O)cc2)NC(=O)[C@H](CCCCN)NC(=O)CNC(=O)[C@H](C(C)C)NC1=O [compound 94, DOTA-PEG8-Nle-Y-C-V-G-K-Y-D-V-Y-C-W-F-Thr-CONH2] ({DOTA-PEG8}-[Nle]YCVGKYDVYCWFT-NH2; disulfide 3-11) | 10 to 100
4 | CC(=O)N[C@@H](CCC(C)C)C(=O)N[C@@H](Cc1ccc(O)cc1)C(=O)N[C@H]1CSSC[C@@H](C(=O)N[C@@H](Cc2cccc3ccccc23)C(=O)N[C@@H](Cc2ccccc2)C(=O)N(C)[C@@H](CO)C(=O)N[C@H](CCCCNC(=O)CN2CCN(CC(=O)O)CCN(CC(=O)O)CCN(CC(=O)O)CC2)C(N)=O)NC(=O)[C@H](C2CCCCC2)NC(=O)[C@H](C(C)C)NC(=O)[C@H](CC(=O)O)NC(=O)[C@H](Cc2ccncc2)NC(=O)[C@H](CCCCN)NC(=O)CNC(=O)[C@H](C(C)(C)C)NC1=O [compound 243, Ac-hLeu-Y-C-Tbg-G-K-4PyA-D-V-Chg-C-1Nal-F-NMeSer-dLys(DOTA)-CONH2] (Ac-[hLeu]YC[Tle]GK[4Pal]DV[Chg]C[1Nal]F[NMeS][dK](DOTA)-NH2; disulfide 3-11) | 10 to 100
5 | CCCC[C@H](NC(C)=O)C(=O)N[C@@H](Cc1ccc(O)cc1)C(=O)N[C@H]1CSSC[C@@H](C(=O)N[C@@H](Cc2c[nH]c3ccccc23)C(=O)N[C@@H](Cc2ccccc2)C(=O)N[C@H](C(=O)N[C@H](CCCCNC(=O)CN2CCN(CC(=O)O)CCN(CC(=O)O)CCN(CC(=O)O)CC2)C(N)=O)[C@@H](C)O)NC(=O)[C@H](Cc2ccc(O)cc2)NC(=O)[C@H](C(C)C)NC(=O)[C@H](CC(=O)O)NC(=O)[C@H](Cc2ccc(O)cc2)NC(=O)[C@H](CCCCN)NC(=O)CNC(=O)[C@H](C2CCCCC2)NC1=O [compound 54, Ac-Nle-Y-C-ChG-G-K-Y-D-V-Y-C-W-F-Thr-dLys(DOTA)-CONH2] (Ac-[Nle]YC[Chg]GKYDVYCWFT[dK](DOTA)-NH2; disulfide 3-11) | 10 to 100

Same assay, conditions: SPR KD—37° C., 4Ig B7-H3; 37° C. flow cell temperature

Row | SMILES | Kd [nM]
6 | CCCC[C@H](NC(C)=O)C(=O)N[C@@H](Cc1ccc(O)cc1)C(=O)N[C@H]1CSSC[C@@H](C(=O)N[C@@H](Cc2c[nH]c3ccccc23)C(=O)N[C@@H](Cc2ccccc2)C(N)=O)NC(=O)[C@H](Cc2ccc(O)cc2)NC(=O)[C@H](C(C)C)NC(=O)[C@H](CC(=O)O)NC(=O)[C@H](Cc2ccc(C(=O)O)cc2)NC(=O)[C@H](CCCCN)NC(=O)CNC(=O)[C@H](C(C)C)NC1=O [compound 24, Ac-Nle-Y-C-V-G-K-4COOHPhe-D-V-Y-C-W-F-CONH2] (Ac-[Nle]YCVGK[Phe(4-COOH)]DVYCWF-NH2; disulfide 3-11) | 10 to 100
7 | CC(C)CC[C@H](NC(=O)CCOCCOCCOCCOCCOCCOCCOCCOCCNC(=O)CCCc1ccc(I)cc1)C(=O)N[C@@H](Cc1ccc(O)cc1)C(=O)N[C@H]1CSSC[C@@H](C(=O)N[C@@H](Cc2c[nH]c3ccc(F)cc23)C(=O)N[C@@H](Cc2ccccc2)C(=O)N[C@H](C(=O)N[C@H](CCCCNC(=O)CN2CCN(CC(=O)O)CCN(CC(=O)O)CCN(CC(=O)O)CC2)C(=O)O)C(C)(C)O)NC(=O)[C@H](Cc2ccc(O)cc2)NC(=O)[C@H](C(C)C)NC(=O)[C@H](CC(=O)O)NC(=O)[C@H](CC2CCOCC2)NC(=O)[C@H](CCCCN)NC(=O)CNC(=O)[C@H](C(C)(C)C)NC1=O [compound 365, AB-PEG8-hLeu-Y-C-Tbg-G-K-ThpA-D-V-Y-C-5FW-F-hydroxyVal-dLys(DOTA)-COOH] ({Butanoyl(4-(4-I-phenyl))-PEG8}-[hLeu]YC[Tle]GK[Ala(4-THP)]DVYC[Trp(5-F)]F[Val(3-OH)][dK](DOTA)-OH; disulfide 3-11) | 10 to 100
8 | CC(=O)N[C@@H](CCC(C)C)C(=O)N[C@@H](Cc1ccc(O)cc1)C(=O)N[C@H]1CSSC[C@@H](C(=O)N[C@@H](Cc2c[nH]c3ccc(F)cc23)C(=O)N[C@@H](Cc2ccccc2)C(=O)N[C@H](C(N)=O)C(C)(C)O)NC(=O)[C@H](Cc2ccc(O)cc2)NC(=O)[C@H](C(C)C)NC(=O)[C@H](CC(=O)O)NC(=O)[C@H](CC2CCOCC2)NC(=O)[C@H](CCCCN)NC(=O)CNC(=O)[C@H](C(C)(C)C)NC1=O [compound 404, Ac-hLeu-Y-C-Tbg-G-K-ThpA-D-V-Y-C-5FW-F-hydroxyVal-CONH2] (Ac-[hLeu]YC[Tle]GK[Ala(4-THP)]DVYC[Trp(5-F)]F[Val(3-OH)]-NH2; disulfide 3-11) | 1 to 10
9 | CC(=O)N[C@@H](CCC(C)C)C(=O)N[C@@H](Cc1ccc(O)cc1)C(=O)N[C@H]1CSSC[C@@H](C(=O)N[C@@H](Cc2c[nH]c3ccc(F)cc23)C(=O)N[C@@H](Cc2ccccc2)C(=O)N[C@H](C(=O)N[C@H](CCCCNC(=O)CN2CCN(CC(=O)O)CCN(CC(=O)O)CCN(CC(=O)O)CC2)C(=O)O)C(C)(C)O)NC(=O)[C@H](Cc2ccc(O)cc2)NC(=O)[C@H](C(C)C)NC(=O)[C@H](CC(=O)O)NC(=O)[C@H](CC2CCOCC2)NC(=O)[C@H](CCCCN)NC(=O)CN(C)C(=O)[C@H]([C@@H](C)O)NC1=O [compound 386, Ac-hLeu-Y-C-Thr-Sar-K-ThpA-D-V-Y-C-5FW-F-hydroxyVal-dLys(DOTA)-COOH] (Ac-[hLeu]YCT[Sar]K[Ala(4-THP)]DVYC[Trp(5-F)]F[Val(3-OH)][dK](DOTA)-OH; disulfide 3-11) | 1 to 10
10 | CC(=O)N[C@@H](CCC(C)C)C(=O)N[C@@H](Cc1ccc(O)cc1)C(=O)N[C@H]1CSSC[C@@H](C(=O)N[C@@H](Cc2c[nH]c3ccc(F)cc23)C(=O)N[C@@H](Cc2ccccc2)C(=O)N2CCC[C@H]2C(=O)N[C@H](CCCCNC(=O)CN2CCN(CC(=O)O)CCN(CC(=O)O)CCN(CC(=O)O)CC2)C(=O)O)NC(=O)[C@H](Cc2ccc(O)cc2)NC(=O)[C@H](C(C)C)NC(=O)[C@H](CC(=O)O)NC(=O)[C@H](CC2CCOCC2)NC(=O)[C@H](CC2CCN(CC(=O)O)CC2)NC(=O)CNC(=O)[C@H](C(C)(C)C)NC1=O [compound 319, Ac-hLeu-Y-C-Tbg-G-[Pip(CH2CO2H)Ala]-ThpA-D-V-Y-C-5FW-F-Pro-dLys(DOTA)-COOH] (Ac-[hLeu]YC[Tle]G[Ala(1-CH2CO2H-4-piperidyl)][Ala(4-THP)]DVYC[Trp(5-F)]FP[dK](DOTA)-OH; disulfide 3-11) | 1 to 10
11 | CC(=O)N[C@@H](CCC(C)C)C(=O)N[C@@H](Cc1ccc(O)cc1)C(=O)N[C@H]1CSSC[C@@H](C(=O)N[C@@H](Cc2c[nH]c3ccc(F)cc23)C(=O)N[C@@H](Cc2cccc(O)c2)C(=O)N[C@H](C(=O)N[C@H](CCCCNC(=O)CN2CCN(CC(=O)O)CCN(CC(=O)O)CCN(CC(=O)O)CC2)C(=O)O)C(C)(C)O)NC(=O)[C@H](Cc2ccc(O)cc2)NC(=O)[C@H](C(C)C)NC(=O)[C@H](CC(=O)O)NC(=O)[C@H](CC2CCOCC2)NC(=O)[C@H](CC2CCNCC2)NC(=O)CNC(=O)[C@H](C(C)(C)C)NC1=O [compound 431, Ac-hLeu-Y-C-Tbg-G-PipAla-ThpA-D-V-Y-C-5FW-3OHPhe-hydroxyVal-dLys(DOTA)-COOH] (Ac-[hLeu]YC[Tle]G[Ala(piperidin-4-yl)][Ala(4-THP)]DVYC[Trp(5-F)][mTyr][Val(3-OH)][dK](DOTA)-OH; disulfide 3-11) | 1 to 10
